# How the values were obtained:
# [1] = test system: syngeneic pancreatic tumors established with orthotopic injection of KPC1361 cells; experiment: Orthotopic KPC1361 pancreatic tumor model with anti-PD-1; assay type: in vivo, mice; settings: apilimod 60 mg/kg, ESK981 30 mg/kg oral gavage
# From the text: FIG. 8B is a line graph of the efficacy of α-PD1 in combination with apilimod or ESK981 against pancreatic tumors from orthotopically injected KPC1361 cells to mice.
# FIG. 8C (Left) is a line graph of flow cytometry measuring surface expression of MHC-I on GPF-labelled cancer cells in pancreatic tumors treated with α-PD1 in combination with apilimod or ESK981; (Right) is a bar graph of quantification of flow cytometry measuring surface expression of MHC-I on GPF-labelled cancer cells in pancreatic tumors treated with α-PD1 in combination with apilimod or ESK981.
# FIG. 8D (left) is a series of 3 images of flow cytometry measuring the amount of total CD8^+ T cells, and proportion of activated or proliferative CD8^+ T cells in pancreatic tumors treated with α-PD1 in combination with apilimod or ESK981; (Right) are bar graphs of flow cytometry quantification of the amount of total CD8^+ T cells, and proportion of activated or proliferative CD8^+ T cells in pancreatic tumors treated with α-PD1 in combination with apilimod or ESK981.
# FIG. 9A is a line graph of the survival of pancreatic tumor bearing mice, orthotopically injected with KPC1361 cells and treated with an immune checkpoint inhibitor, apilimod, or ESK981 individually, or in combination with each other.
# All experimental protocols were conducted after approval by the U-M Institutional Animal Care & Use Committee. […] KPC1361 cells were resuspended in PBS, 1:1 (v/v) mixed with Matrigel (BD Biosciences; catalog #: 354248), and orthotopically injected to the pancreases at 250,000 cells in a total volume of 50 μl per injection. B16-F10 cells were resuspended in PBS and injected subcutaneously to both flanks at 400,000 cells per injection. For ACT study, B16-F10-OVA cells were resuspended in PBS and injected subcutaneously to both flanks at 300,000 cells per injection. For lung metastasis experiment, B16-BL6 cells were resuspended in PBS, 1:1 (v/v) mixed with Matrigel and injected subcutaneously to both flanks at 400,000 cells per injection. Fifteen days after tumor cell inoculation, the primary tumors were removed surgically under anesthesia. Thirty-five days after removal of the primary tumors, lung tissues were extracted and fixed, and lung metastasis was quantified. C57BL/6 mice were acquired from The Jackson Laboratory. Measurement of tumor volume began 5-9 days post tumor cell implantation and was performed 2-3 times per week using calipers. Volume measurements of pancreatic tumors were also achieved with calipers, as reported See, e.g., Koikawa, K. et al., Cell 2021; 184(18):4753-4771. In brief, mice were subjected to anesthesia with 2-3% isoflurane, and the abdominal wall then became soft and loose. […] Volume (mm^3) of tumor was calculated using (W^2×L)/2, where W stood for minor tumor axis and L for the major. […]
# KPC1361 cells = experiment: MHC-I surface expression in Pikfyve-wildtype, Pikfyve-null, Atg5-null or Atg7-null cells; assay type: cell-based, mouse; settings: on-target test
# From the text: FIG. 1F (Left) is line graphs of flow cytometry measuring MHC-I surface expression in KPC1361 cells with or without Pikfyve KO, treated with DMSO, Bafilomycin, chloroquine, Apilimod, or ESK981; (Right) is bar graphs of quantification of flow cytometry measuring MHC-I surface expression in KPC1361 cells with or without Pikfyve KO, treated with DMSO, Bafilomycin, chloroquine, Apilimod, or ESK981.
# FIG. 1G (Left) is a line graph of flow cytometry measuring MHC-I surface expression in KPC1361 cells with non-targeting single-guide RNA (control), or single-guide RNAs depleting Atg5 or Atg7, treated with DMSO or Apilimod; (Right) is a bar graph of quantification of flow cytometry measuring MHC-I surface expression in KPC1361 cells with non-targeting single-guide RNA (control), or single-guide RNAs depleting Atg5 or Atg7, treated with DMSO or Apilimod.
# Cancer cells or the OVA-expressing cancer cells treated in vitro were harvested from dishes, resuspended in buffer MACS (PBS containing 2% FBS and 2 mM EDTA), and stained with Zombie NIR™ Fixable Viability kit (BioLegend: #423106) and fluorophore-conjugated antibody against MHC-I or PE-conjugated antibody against SIINFEKL bound H-2Kb (BioLegend; catalog #141604), respectively. The cells were next washed twice with 1 ml MACS and fixed with 2% paraformaldehyde in PBS for 15 minutes at room temperature. The cells were then subjected to the flow cytometer (SONY SH800S) for measuring surface expression of MHC-I or SIINFEKL bound H-2Kb, respectively. Antibodies used in this study include anti-H-2Kb (BD Biosciences; catalog #553570) and anti-H-2Db (28-14-8; Thermo Fisher Scientific; catalog #12-5999-82) for KPC1361 and B16-F10, anti-H-2Kd (BD Biosciences; catalog #562004) and anti-H-2Dd (BD Biosciences; catalog #553580) for 4T1, anti-H-2Kq (BD Biosciences; catalog #742296) and anti-H-2Dq/H-2Lq (BD Biosciences; catalog #744853) for MyC-CaP, and anti-HLA-A,B,C (clone w6/32; BioLegend; catalog #311406) for human cancer cells.
SMILES,intratumoral activated CD8+ T cells [1],tumor-specific MHC-I surface expression [1],"upregulation of MHC-I surface expression, Pikfyve-wildtype vs Pikfyve-null cells (KPC1361 cells)"
"CC(C)Cn1c2ccc(Nc3ncccn3)cc2c2c3c(c4c(c21)CCc1nn(C)cc1-4)C(=O)NC3 [ESK981, 13-isobutyl-4-methyl-10-(pyrimidin-2-ylamino)-1,2,4,7,8,13-hexahydro-6H-indazolo[5,4-a]pyrrolo[3,4-c]carbazol-6-one]",increase,upregulation,only observed in the wildtype cells but not Pikfyve-null cells
"Cc1cccc(/C=N/Nc2cc(N3CCOCC3)nc(OCCc3ccccn3)n2)c1 [apilimod, N-[(E)-(3-methylphenyl)methylideneamino]-6-morpholin-4-yl-2-(2-pyridin-2-ylethoxy)pyrimidin-4-amine]",increase,upregulation,only observed in the wildtype cells but not Pikfyve-null cells
